# Test results taken from the supplement of paper PMC10307832.
# What was measured:
# Test in all cases: relative viability (nuclei count vs DMSO), 5 days (fraction); higher = more cells survive
# NCI-H1993 = system: NCI-H1993
# Outline: (§1)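 Lung cancer cell lines in 1536-well plates got either a single drug or a fixed anchor-drug dose together with five library-drug doses (not always all listed) in √10 steps, by pin tool, on the day after seeding. Nuclei were counted after 5 days, and relative viability is the treated-to-vehicle ratio of nuclei counts. Values are medians of duplicate plates.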
# LXF-289 = system: LXF-289
# Outline: as §1
# HOP-62 = system: HOP-62
# Outline: as §1
# ChaGo-K-1 = system: ChaGo-K-1
# Outline: as §1
# HCC-15 = system: HCC-15
# Outline: as §1
# EPLC-272H = system: EPLC-272H
# Outline: as §1
# NCI-H358 = system: NCI-H358
# Outline: as §1
# EMC-BAC-2 = system: EMC-BAC-2
# Outline: as §1
# NCI-H441 = system: NCI-H441
# Outline: as §1
# HCC-78 = system: HCC-78
# Outline: as §1
# NCI-H1915 = system: NCI-H1915
# Outline: as §1
# NCI-H1755 = system: NCI-H1755
# Outline: as §1
# ABC-1 = system: ABC-1
# Outline: as §1
# NCI-H1666 = system: NCI-H1666
# Outline: as §1
# NCI-H2126 = system: NCI-H2126
# Outline: as §1
# NCI-H322M = system: NCI-H322M
# Outline: as §1
# NCI-H2085 = system: NCI-H2085
# Outline: as §1
# NCI-H1975 = system: NCI-H1975
# Outline: as §1
# CAL-12T = system: CAL-12T
# Outline: as §1
# NCI-H3122 = system: NCI-H3122
# Outline: as §1
# NCI-H2023 = system: NCI-H2023
# Outline: as §1
# COR-L 105 = system: COR-L 105
# Outline: as §1
# UMC-11 = system: UMC-11
# Outline: as §1
smiles,measurement,setting,value
O=C(O)c1ccc(-c2c[nH]c3ncc(-c4ccccc4)cc23)cc1C1CCCC1 + NC(=O)Nc1cc(-c2cccc(F)c2)sc1C(=O)N[C@H]1CCCNC1 [AZD7762] (partner 0.2 µM),relative viability,NCI-H1993; first compound 0.04 µM,0.776
same,relative viability,NCI-H1993; first compound 0.1265 µM,0.814
same,relative viability,NCI-H1993; first compound 0.4 µM,0.832
same,relative viability,NCI-H1993; first compound 1.265 µM,0.615
same,relative viability,LXF-289; first compound 0.04 µM,1.07
same,relative viability,LXF-289; first compound 0.1265 µM,1.25
same,relative viability,LXF-289; first compound 0.4 µM,1.02
same,relative viability,LXF-289; first compound 1.265 µM,0.922
same,relative viability,HOP-62; first compound 0.04 µM,0.618
same,relative viability,HOP-62; first compound 0.1265 µM,0.795
same,relative viability,HOP-62; first compound 0.4 µM,0.637
same,relative viability,HOP-62; first compound 1.265 µM,0.674
same,relative viability,ChaGo-K-1; first compound 0.04 µM,0.845
same,relative viability,ChaGo-K-1; first compound 0.1265 µM,1.02
same,relative viability,ChaGo-K-1; first compound 0.4 µM,0.907
same,relative viability,ChaGo-K-1; first compound 1.265 µM,0.848
same,relative viability,HCC-15; first compound 0.04 µM,1.22
same,relative viability,HCC-15; first compound 0.1265 µM,1.45
same,relative viability,HCC-15; first compound 0.4 µM,1.42
same,relative viability,HCC-15; first compound 1.265 µM,1.03
same,relative viability,EPLC-272H; first compound 0.04 µM,0.246
same,relative viability,EPLC-272H; first compound 0.1265 µM,0.32
same,relative viability,EPLC-272H; first compound 0.4 µM,0.21
same,relative viability,EPLC-272H; first compound 1.265 µM,0.246
same,relative viability,NCI-H358; first compound 0.04 µM,0.494
same,relative viability,NCI-H358; first compound 0.1265 µM,0.536
same,relative viability,NCI-H358; first compound 0.4 µM,0.456
same,relative viability,NCI-H358; first compound 1.265 µM,0.452
same,relative viability,EMC-BAC-2; first compound 0.04 µM,1.1
same,relative viability,EMC-BAC-2; first compound 0.1265 µM,1.38
same,relative viability,EMC-BAC-2; first compound 0.4 µM,1.23
same,relative viability,EMC-BAC-2; first compound 1.265 µM,0.981
same,relative viability,NCI-H441; first compound 0.04 µM,1.01
same,relative viability,NCI-H441; first compound 0.1265 µM,1.23
same,relative viability,NCI-H441; first compound 0.4 µM,1.11
same,relative viability,NCI-H441; first compound 1.265 µM,1.14
same,relative viability,HCC-78; first compound 0.1265 µM,0.734
same,relative viability,HCC-78; first compound 0.4 µM,0.779
same,relative viability,HCC-78; first compound 1.265 µM,0.712
same,relative viability,NCI-H1915; first compound 0.04 µM,0.681
same,relative viability,NCI-H1915; first compound 0.1265 µM,0.64
same,relative viability,NCI-H1915; first compound 0.4 µM,0.77
same,relative viability,NCI-H1915; first compound 1.265 µM,0.764
same,relative viability,NCI-H1755; first compound 0.04 µM,0.488
same,relative viability,NCI-H1755; first compound 0.1265 µM,0.521
same,relative viability,NCI-H1755; first compound 0.4 µM,0.547
same,relative viability,NCI-H1755; first compound 1.265 µM,0.523
same,relative viability,ABC-1; first compound 0.04 µM,0.726
same,relative viability,ABC-1; first compound 0.1265 µM,0.965
same,relative viability,ABC-1; first compound 0.4 µM,0.89
same,relative viability,ABC-1; first compound 1.265 µM,0.837
same,relative viability,NCI-H1666; first compound 0.04 µM,0.798
same,relative viability,NCI-H1666; first compound 0.1265 µM,1
same,relative viability,NCI-H1666; first compound 0.4 µM,0.875
same,relative viability,NCI-H1666; first compound 1.265 µM,0.728
same,relative viability,NCI-H2126; first compound 0.04 µM,1.02
same,relative viability,NCI-H2126; first compound 0.1265 µM,1.11
same,relative viability,NCI-H2126; first compound 0.4 µM,1.08
same,relative viability,NCI-H2126; first compound 1.265 µM,1
same,relative viability,NCI-H322M; first compound 0.04 µM,0.585
same,relative viability,NCI-H322M; first compound 0.1265 µM,0.631
same,relative viability,NCI-H322M; first compound 0.4 µM,0.625
same,relative viability,NCI-H322M; first compound 1.265 µM,0.65
same,relative viability,NCI-H2085; first compound 0.04 µM,0.944
same,relative viability,NCI-H2085; first compound 0.1265 µM,1.09
same,relative viability,NCI-H2085; first compound 0.4 µM,1.03
same,relative viability,NCI-H2085; first compound 1.265 µM,0.871
same,relative viability,NCI-H1975; first compound 0.04 µM,0.738
same,relative viability,NCI-H1975; first compound 0.1265 µM,0.793
same,relative viability,NCI-H1975; first compound 0.4 µM,0.676
same,relative viability,NCI-H1975; first compound 1.265 µM,0.728
same,relative viability,CAL-12T; first compound 0.04 µM,0.632
same,relative viability,CAL-12T; first compound 0.1265 µM,0.698
same,relative viability,CAL-12T; first compound 0.4 µM,0.629
same,relative viability,CAL-12T; first compound 1.265 µM,0.671
same,relative viability,NCI-H3122; first compound 0.04 µM,0.97
same,relative viability,NCI-H3122; first compound 0.1265 µM,1.04
same,relative viability,NCI-H3122; first compound 0.4 µM,1.05
same,relative viability,NCI-H3122; first compound 1.265 µM,0.999
O=C(O)c1ccc(-c2c[nH]c3ncc(-c4ccccc4)cc23)cc1C1CCCC1 + Nc1ncn([C@H]2C[C@H](O)[C@@H](CO)O2)c(=O)n1 [Decitabine] (partner 2 µM),relative viability,NCI-H1993; first compound 0.04 µM,0.552
same,relative viability,NCI-H1993; first compound 0.1265 µM,0.547
same,relative viability,NCI-H1993; first compound 0.4 µM,0.613
same,relative viability,NCI-H1993; first compound 1.265 µM,0.644
same,relative viability,LXF-289; first compound 0.04 µM,0.352
same,relative viability,LXF-289; first compound 0.1265 µM,0.355
same,relative viability,LXF-289; first compound 0.4 µM,0.361
same,relative viability,LXF-289; first compound 1.265 µM,0.302
same,relative viability,NCI-H2023; first compound 0.04 µM,0.191
same,relative viability,NCI-H2023; first compound 0.1265 µM,0.243
same,relative viability,NCI-H2023; first compound 0.4 µM,0.216
same,relative viability,NCI-H2023; first compound 1.265 µM,0.17
same,relative viability,COR-L 105; first compound 0.04 µM,0.68
same,relative viability,COR-L 105; first compound 0.1265 µM,0.62
same,relative viability,COR-L 105; first compound 0.4 µM,0.703
same,relative viability,COR-L 105; first compound 1.265 µM,0.72
same,relative viability,HOP-62; first compound 0.04 µM,0.166
same,relative viability,HOP-62; first compound 0.1265 µM,0.241
same,relative viability,HOP-62; first compound 0.4 µM,0.203
same,relative viability,HOP-62; first compound 1.265 µM,0.239
same,relative viability,ChaGo-K-1; first compound 0.04 µM,0.515
same,relative viability,ChaGo-K-1; first compound 0.1265 µM,0.501
same,relative viability,ChaGo-K-1; first compound 0.4 µM,0.484
same,relative viability,ChaGo-K-1; first compound 1.265 µM,0.478
same,relative viability,HCC-15; first compound 0.04 µM,0.641
same,relative viability,HCC-15; first compound 0.1265 µM,0.673
same,relative viability,HCC-15; first compound 0.4 µM,0.608
same,relative viability,HCC-15; first compound 1.265 µM,0.381
same,relative viability,EPLC-272H; first compound 0.04 µM,0.351
same,relative viability,EPLC-272H; first compound 0.1265 µM,0.402
same,relative viability,EPLC-272H; first compound 0.4 µM,0.388
same,relative viability,EPLC-272H; first compound 1.265 µM,0.277
same,relative viability,NCI-H358; first compound 0.04 µM,0.193
same,relative viability,NCI-H358; first compound 0.1265 µM,0.218
same,relative viability,NCI-H358; first compound 0.4 µM,0.172
same,relative viability,NCI-H358; first compound 1.265 µM,0.115
same,relative viability,EMC-BAC-2; first compound 0.04 µM,0.948
same,relative viability,EMC-BAC-2; first compound 0.1265 µM,1.06
same,relative viability,EMC-BAC-2; first compound 0.4 µM,1.01
same,relative viability,EMC-BAC-2; first compound 1.265 µM,0.909
same,relative viability,NCI-H441; first compound 0.04 µM,0.221
same,relative viability,NCI-H441; first compound 0.1265 µM,0.254
same,relative viability,NCI-H441; first compound 0.4 µM,0.251
same,relative viability,NCI-H441; first compound 1.265 µM,0.251
same,relative viability,UMC-11; first compound 0.04 µM,0.653
same,relative viability,UMC-11; first compound 0.1265 µM,0.565
same,relative viability,UMC-11; first compound 0.4 µM,0.497
same,relative viability,UMC-11; first compound 1.265 µM,0.626
same,relative viability,HCC-78; first compound 0.1265 µM,0.862
same,relative viability,HCC-78; first compound 0.4 µM,0.859
same,relative viability,HCC-78; first compound 1.265 µM,0.622
same,relative viability,NCI-H1915; first compound 0.04 µM,0.241
same,relative viability,NCI-H1915; first compound 0.1265 µM,0.229
same,relative viability,NCI-H1915; first compound 0.4 µM,0.259
same,relative viability,NCI-H1915; first compound 1.265 µM,0.251
same,relative viability,NCI-H1755; first compound 0.04 µM,0.699
same,relative viability,NCI-H1755; first compound 0.1265 µM,0.753
same,relative viability,NCI-H1755; first compound 0.4 µM,0.713
same,relative viability,NCI-H1755; first compound 1.265 µM,0.705
same,relative viability,ABC-1; first compound 0.04 µM,1.1
same,relative viability,ABC-1; first compound 0.1265 µM,1.1
same,relative viability,ABC-1; first compound 0.4 µM,0.891
same,relative viability,ABC-1; first compound 1.265 µM,0.931
same,relative viability,NCI-H1666; first compound 0.04 µM,0.689
same,relative viability,NCI-H1666; first compound 0.1265 µM,0.805
same,relative viability,NCI-H1666; first compound 0.4 µM,0.693
same,relative viability,NCI-H1666; first compound 1.265 µM,0.613
same,relative viability,NCI-H2126; first compound 0.04 µM,0.585
same,relative viability,NCI-H2126; first compound 0.1265 µM,0.621
same,relative viability,NCI-H2126; first compound 0.4 µM,0.466
same,relative viability,NCI-H2126; first compound 1.265 µM,0.569
same,relative viability,NCI-H322M; first compound 0.04 µM,0.772
same,relative viability,NCI-H322M; first compound 0.1265 µM,0.704
same,relative viability,NCI-H322M; first compound 0.4 µM,0.723
same,relative viability,NCI-H322M; first compound 1.265 µM,0.66
same,relative viability,NCI-H2085; first compound 0.04 µM,0.588
same,relative viability,NCI-H2085; first compound 0.1265 µM,0.548
same,relative viability,NCI-H2085; first compound 0.4 µM,0.56
same,relative viability,NCI-H2085; first compound 1.265 µM,0.366
same,relative viability,NCI-H1975; first compound 0.04 µM,0.393
same,relative viability,NCI-H1975; first compound 0.1265 µM,0.447
same,relative viability,NCI-H1975; first compound 0.4 µM,0.554
same,relative viability,NCI-H1975; first compound 1.265 µM,0.376
same,relative viability,NCI-H3122; first compound 0.04 µM,0.423
same,relative viability,NCI-H3122; first compound 0.1265 µM,0.431
same,relative viability,NCI-H3122; first compound 0.4 µM,0.471
same,relative viability,NCI-H3122; first compound 1.265 µM,0.428
